We go through eleven molecules from US10611740B2, “Aryl dihydro-2H-benzo[b][1,4]oxazine sulfonamide and related compounds for use as agonists of RORγ and the treatment of disease” (Lycera Corporation, priority 2015, dated 2020).

One assay addresses T1, RORγ-LBD (Homo sapiens, UniProt P51449).
T1 construct: made in house; host or cells: SF9 cells (baculovirus)
T1 sequence (P51449 269-508 limits assumed): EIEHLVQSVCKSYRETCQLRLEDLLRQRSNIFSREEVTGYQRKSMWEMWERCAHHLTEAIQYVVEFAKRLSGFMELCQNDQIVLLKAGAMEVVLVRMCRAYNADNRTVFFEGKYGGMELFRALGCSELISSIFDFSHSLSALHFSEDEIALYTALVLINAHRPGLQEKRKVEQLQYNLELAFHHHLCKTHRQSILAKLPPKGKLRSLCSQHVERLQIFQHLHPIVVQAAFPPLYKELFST
As to the kind of experiment: RORγ-Ligand Binding Domain (LBD) TR-FRET Assay.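 For TR-FRET Assay Max Response: 665/615 nm ratio relative to signal without ursolic acid or compound set at 100.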 Type of assay: biochemical. Summed up: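 His-tagged RORγ-LBD from SF9 baculovirus lysate, ~3 nM final, in 50 mM Tris pH 7.0, 50 mM KCl, 1 mM EDTA, 0.1 mM DTT, 0.01% BSA. Biotinylated SRC1 LXXLL peptide at 200 nM final with 2 μM ursolic acid; TR-FRET read-out, 1% DMSO final.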
In general terms: TR-FRET usually uses a lanthanide donor and a delayed reading to cut background.

In the next assay the target is T2, Gal4-RORγ-LBD (Homo sapiens, UniProt P51449).
T2 construct: expressed in transfected cells; host or cells: HEK-293 cells (pcDNA3.1neo plasmid)
T2 sequence (P51449 269-508 limits assumed): T1 sequence (P51449 269-508 limits assumed)
The experiment in a line: Gal4-RORγ Luciferase Reporter Assay in HEK-293T Cells. Type of assay: cell-based. As to conditions: HEK-293 cells. Summed up:
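HEK-293 cells were transiently co-transfected with Gal4-RORγ-LBD and pGL4.31 Gal4-luciferase, with ursolic acid added at 2 μM final. Compounds were incubated overnight at 37° C. in 0.2% DMSO and luminescence read with One-Glo. Max Response is the upper plateau of a 4-parameter logistic fit, with signal lacking ursolic acid or compound set to 100.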
On the technique in general: In a reporter assay the amount or activity of a reporter protein is the signal.

[1] abbreviates: luciferase reporter, with 2 μM ursolic acid.

Molecules are shown by their SMILES.

A word on the EC50: it is the concentration at which the effect is half-maximal. As to `CC(=O)NC1(C[C@H]2CN(S(=O)(=O)c3cccc(C(F)(F)F)c3)c3cc(-c4cccc(C(F)(F)F)n4)ccc3O2)COC1` [Compound 51M, (S)-N-(3-((4-((3-(trifluoromethyl)-phenyl)sulfonyl)-6-(6-(trifluoromethyl)pyridin-2-yl)-3,4-dihydro-2H-benzo[b][1,4]oxazin-2-yl)methyl)oxetan-3-yl)acetamide], at RORγ-LBD, the half-maximal effective concentration (EC50) was less than 500 nM and the “TR-FRET Assay Max Response” value was “*** (The symbol “***” indicates a value in the range of greater than 150 to 200)”. In addition, at Gal4-RORγ-LBD (2 μM ursolic acid), the 50% effective concentration (EC50) was less than 500 nM and the “Gal4-RORγ Assay Max Response” value is listed as “** (The symbol “**” indicates a value in the range of greater than 90 to 150)”.
As to `O=C(O)CC[C@H]1CN(S(=O)(=O)c2cccc(C(F)(F)F)c2)c2cc(-c3cc(F)cc(F)c3Cl)cc(F)c2O1` [Compound 22H, (S)-3-(6-(2-chloro-3,5-difluoro-phenyl)-8-fluoro-4-((3-(trifluoro-methyl)phenyl)sulfonyl)-3,4-dihydro-2H-benzo[b][1,4]oxazin-2-yl)propanoic acid], on RORγ-LBD, the EC50 is less than 500 nM and the “TR-FRET Assay Max Response” value is on record as “*** (The symbol “***” indicates a value in the range of greater than 150 to 200)”. On Gal4-RORγ-LBD (2 μM ursolic acid), the EC50 was less than 500 nM and the “Gal4-RORγ Assay Max Response” value is recorded as “** (The symbol “**” indicates a value in the range of greater than 90 to 150)”.
Turning to `Cc1c(C(F)(F)F)cccc1S(=O)(=O)N1C[C@H](CCC(=O)O)Oc2ccc(-c3cc(F)ccc3F)cc21` [Compound 6I, (S)-3-(6-(2,5-difluorophenyl)-4-((2-methyl-3-(trifluoromethyl)phenyl)-sulfonyl)-3,4-dihydro-2H-benzo[b][1,4]oxazin-2-yl)propanoic acid], at RORγ-LBD, the EC50 was less than 500 nM and the “TR-FRET Assay Max Response” value is listed as “*** (The symbol “***” indicates a value in the range of greater than 150 to 200)”. Also, on Gal4-RORγ-LBD (setting [1]), the EC50 is 500 to 5000 nM and the “Gal4-RORγ Assay Max Response” value was “** (The symbol “**” indicates a value in the range of greater than 90 to 150)”.
The like results for `Cc1ccc(F)cc1-c1ccc2c(c1)N(S(=O)(=O)c1cccc(C(F)(F)F)c1)C[C@H](CCC(=O)O)O2` [Compound 2BA, (S)-3-(6-(5-fluoro-2-methylphenyl)-4-((3-(trifluoromethyl)phenyl)sulfonyl)-3,4-dihydro-2H-benzo[b][1,4]oxazin-2-yl)propanoic acid] were, in that order, less than 500 nM, “**** (The symbol “****” indicates a value greater than 200)”, less than 500 nM and “** (The symbol “**” indicates a value in the range of greater than 90 to 150)”.
With `C[C@@H](C[C@H]1CN(S(=O)(=O)c2cccc(C(F)(F)F)c2)c2cc(-c3cccc(Cl)c3F)ccc2O1)C(=O)O` [Compound 46E, (S)-3-((S)-6-(3-chloro-2-fluoro-phenyl)-4-((3-(trifluoromethyl)-phenyl)sulfonyl)-3,4-dihydro-2H-benzo[b][1,4]oxazin-2-yl)-2-methylpropanoic acid], at RORγ-LBD, the 50% effective concentration (EC50) is less than 500 nM and the “TR-FRET Assay Max Response” value is given as “** (The symbol “**” indicates a value in the range of greater than 90 to 150)”. For the same molecule, on Gal4-RORγ-LBD (2 μM ursolic acid), the EC50 was 500 to 5000 nM and the “Gal4-RORγ Assay Max Response” value is reported as “* (The symbol “*” indicates a value in the range of 25 to 90)”.
Consider `CC(=O)N[C@H]1C[C@](C[C@H]2CN(S(=O)(=O)c3cccc(C(F)(F)F)c3)c3cc(-c4cc(F)cc(OC(F)F)c4)ccc3O2)(C(=O)O)C1` [Compound 85, (1r,3S)-3-acetamido-1-(((S)-6-(3-(difluoromethoxy)-5-fluorophenyl)-4-((3-(trifluoromethyl)phenyl)sulfonyl)-3,4-dihydro-2H-benzo[b][1,4]oxazin-2-yl)methyl)cyclobutane-1-carboxylic Acid], for which, at RORγ-LBD, the EC50 is less than 500 nM and the “TR-FRET Assay Max Response” value is “** (The symbol “**” indicates a value in the range of greater than 90 to 150)”. Also, at Gal4-RORγ-LBD (2 μM ursolic acid), the concentration for a half-maximal effect (EC50) is less than 500 nM and the “Gal4-RORγ Assay Max Response” value is “** (The symbol “**” indicates a value in the range of greater than 90 to 150)”.
As for `COc1ncccc1-c1ccc2c(c1)N(S(=O)(=O)c1cccc(C(F)(F)F)c1)C[C@H](CCC(=O)O)O2` [Compound 2BG, (S)-3-(6-(2-methoxypyridin-3-yl)-4-((3-(trifluoromethyl)-phenyl)sulfonyl)-3,4-dihydro-2H-benzo[b][1,4]oxazin-2-yl)propanoic acid], on RORγ-LBD, the EC50 was less than 500 nM and the “TR-FRET Assay Max Response” value is given as “*** (The symbol “***” indicates a value in the range of greater than 150 to 200)”. For the same molecule, on Gal4-RORγ-LBD (setting [1]), the concentration for a half-maximal effect (EC50) lay in the range of 500 to 5000 nM and the “Gal4-RORγ Assay Max Response” value is reported as “** (The symbol “**” indicates a value in the range of greater than 90 to 150)”.
Turning to `O=C(NC[C@H]1CN(S(=O)(=O)c2cccc(C(F)(F)F)c2)c2cc(-c3cccc(F)c3Cl)ccc2O1)C1(CO)CC1` [Compound 30CB, (S)-N-((6-(2-chloro-3-fluoro-phenyl)-4-((3-(trifluoromethyl)-phenyl)sulfonyl)-3,4-dihydro-2H-benzo[b][1,4]oxazin-2-yl)methyl)-1-(hydroxymethyl)-cyclopropane-1-carboxamide], on RORγ-LBD, the EC50 is less than 500 nM and the “TR-FRET Assay Max Response” value is given as “*** (The symbol “***” indicates a value in the range of greater than 150 to 200)”. For the same molecule, at Gal4-RORγ-LBD (2 μM ursolic acid), the EC50 was less than 500 nM and the “Gal4-RORγ Assay Max Response” value is “* (The symbol “*” indicates a value in the range of 25 to 90)”.
As for `CN(C)c1ccnc(-c2ccc3c(c2)N(S(=O)(=O)c2cccc(C(F)(F)F)c2)C[C@H](CCC(=O)O)O3)n1` [Compound 4AU, (S)-3-(6-(4-(dimethylamino)-pyrimidin-2-yl)-4-((3-(trifluoromethyl)phenyl)-sulfonyl)-3,4-dihydro-2H-benzo[b][1,4]oxazin-2-yl)propanoic acid], on RORγ-LBD, the EC50 was less than 500 nM and the “TR-FRET Assay Max Response” value is reported as “**** (The symbol “****” indicates a value greater than 200)”. Also, at Gal4-RORγ-LBD (setting [1]), the half-maximal effective concentration (EC50) was in the range of 500 to 5000 nM and the “Gal4-RORγ Assay Max Response” value is listed as “** (The symbol “**” indicates a value in the range of greater than 90 to 150)”.
Regarding `O=C(O)CC[C@H]1CN(S(=O)(=O)c2cc(C(F)(F)F)cnc2OCCO)c2cc(-c3cccc(Cl)c3)ccc2O1` [Compound 6G], at RORγ-LBD, the EC50 is less than 500 nM and the “TR-FRET Assay Max Response” value is given as “**** (The symbol “****” indicates a value greater than 200)”. Also, at Gal4-RORγ-LBD (setting [1]), the EC50 was in the range of 500 to 5000 nM and the “Gal4-RORγ Assay Max Response” value is given as “** (The symbol “**” indicates a value in the range of greater than 90 to 150)”.
For `O=C(O)[C@@H]1C[C@H]1[C@H]1CN(S(=O)(=O)c2cccc(C(F)(F)F)c2)c2cc(-c3cc(F)ccc3F)ccc2O1` [Compound 53, (1R,2R)-2-((S)-6-(2,5-difluorophenyl)-4-((3-(trifluoromethyl)phenyl)sulfonyl)-3,4-dihydro-2H-benzo[b][1,4]oxazin-2-yl)cyclopropane-1-carboxylic acid], at RORγ-LBD, the EC50 is less than 500 nM and the “TR-FRET Assay Max Response” value was “** (The symbol “**” indicates a value in the range of greater than 90 to 150)”. For the same molecule, on Gal4-RORγ-LBD (2 μM ursolic acid), the EC50 was less than 500 nM and the “Gal4-RORγ Assay Max Response” value was “** (The symbol “**” indicates a value in the range of greater than 90 to 150)”.
